Data as given in patent US11272709B2, “Amidine substituted benzoyl derivatives useful as herbicides” (Syngenta Participations AG, priority 2018, dated 2022).

Tests used:
Type in all cases: in vivo
Conditions in all cases: evaluated after 13 days
[1] = system: Amaranthus retoflexus (AMARE); experiment: Pre-emergence herbicidal glasshouse test, Amaranthus retoflexus (AMARE)
Protocol: (§1) Seeds of a variety of test species are sown in standard soil in pots (Lolium perenne (LOLPE), Amaranthus retoflexus (AMARE), Abutilon theophrasti (ABUTH), Setaria faberi (SETFA), Echinochloa crus-galli (ECHCG), Ipomoea hederacea (IPOHE)). After cultivation for one day (pre-emergence) or after 8 days cultivation (post-emergence) under controlled conditions in a glasshouse (at 24/16° C., day/night; 14 hours light; 65% humidity), the plants are sprayed with an aqueous spray solution derived from the formulation of the technical active ingredient in acetone/water (50:50) solution containing 0.5% Tween 20 (polyoxyethelyene sorbitan monolaurate, CAS RN 9005-64-5). Compounds are applied at 500 g/h unless otherwise indicated. The test plants are then grown in a glasshouse under controlled conditions in a glasshouse (at 24/16° C., day/night; 14 hours light; 65% humidity) and watered twice daily. After 13 days for pre and post-emergence, the test is evaluated for the percentage damage caused to the plant. The biological activities are shown in the following table on a five point scale (5=80-100%; 4=60-79%; 3=40-59%; 2=20-39%; 1=0-19%).

[2] = system: Abutilon theophrasti (ABUTH); experiment: Pre-emergence herbicidal glasshouse test, Abutilon theophrasti (ABUTH)
Protocol: as §1

[3] = system: Abutilon theophrasti (ABUTH); experiment: Post-emergence herbicidal glasshouse test, Abutilon theophrasti (ABUTH)
Protocol: as §1

Setaria faberi (SETFA) [4] = experiment: Post-emergence herbicidal glasshouse test, Setaria faberi (SETFA)
Protocol: as §1

[5] = system: Echinochloa crus-galli (ECHCG); experiment: Pre-emergence herbicidal glasshouse test, Echinochloa crus-galli (ECHCG)
Protocol: as §1

[6] = system: Amaranthus retoflexus (AMARE); experiment: Post-emergence herbicidal glasshouse test, Amaranthus retoflexus (AMARE)
Protocol: as §1

Setaria faberi (SETFA) [7] = experiment: Pre-emergence herbicidal glasshouse test, Setaria faberi (SETFA)
Protocol: as §1

[8] = system: Ipomoea hederacea (IPOHE); experiment: Post-emergence herbicidal glasshouse test, Ipomoea hederacea (IPOHE)
Protocol: as §1

[9] = system: Ipomoea hederacea (IPOHE); experiment: Pre-emergence herbicidal glasshouse test, Ipomoea hederacea (IPOHE)
Protocol: as §1

[10] = system: Echinochloa crus-galli (ECHCG); experiment: Post-emergence herbicidal glasshouse test, Echinochloa crus-galli (ECHCG)
Protocol: as §1

Compound	PRE Application AMARE, percentage damage (five point scale) ([1]; 500 g/h)	PRE Application ABUTH, percentage damage (five point scale) ([2]; 500 g/h)	POST Application ABUTH, percentage damage (five point scale) ([3]; 500 g/h)	POST Application SETFA, percentage damage (five point scale) (Setaria faberi (SETFA) [4]; 500 g/h)	PRE Application ECHCG, percentage damage (five point scale) ([5]; 500 g/h)	POST Application AMARE, percentage damage (five point scale) ([6]; 500 g/h)	PRE Application SETFA, percentage damage (five point scale) (Setaria faberi (SETFA) [7]; 500 g/h)	POST Application IPOHE, percentage damage (five point scale) ([8]; 500 g/h)	PRE Application IPOHE, percentage damage (five point scale) ([9]; 500 g/h)	POST Application ECHCG, percentage damage (five point scale) ([10]; 500 g/h)	PRE Application AMARE, percentage damage (five point scale) ([1]; applied at 125 g/ha)	PRE Application ABUTH, percentage damage (five point scale) ([2]; applied at 125 g/ha)	POST Application ABUTH, percentage damage (five point scale) ([3]; applied at 125 g/ha)	POST Application SETFA, percentage damage (five point scale) (Setaria faberi (SETFA) [4]; applied at 125 g/ha)	PRE Application ECHCG, percentage damage (five point scale) ([5]; applied at 125 g/ha)	POST Application AMARE, percentage damage (five point scale) ([6]; applied at 125 g/ha)	PRE Application SETFA, percentage damage (five point scale) (Setaria faberi (SETFA) [7]; applied at 125 g/ha)	POST Application IPOHE, percentage damage (five point scale) ([8]; applied at 125 g/ha)	PRE Application IPOHE, percentage damage (five point scale) ([9]; applied at 125 g/ha)	POST Application ECHCG, percentage damage (five point scale) ([10]; applied at 125 g/ha)
Cc1c(C(=O)Nc2nnnn2C)ccc(C(F)(F)F)c1N=CN(C)C [Compound 1.017]	5 (5=80-100%)	5 (5=80-100%)	5 (5=80-100%)	5 (5=80-100%)	5 (5=80-100%)	5 (5=80-100%)	5 (5=80-100%)	5 (5=80-100%)	5 (5=80-100%)	5 (5=80-100%)										
Cc1c(C(=O)Nc2nnnn2C)ccc(S(C)(=O)=O)c1/N=C/N(C)C [Compound 1.025, 3-[(E)-dimethylaminomethyleneamino]-2-methyl-4-methylsulfonyl-N-(1-methyltetrazol-5-yl)benzamide]	5 (5=80-100%)	5 (5=80-100%)	5 (5=80-100%)	5 (5=80-100%)	5 (5=80-100%)	5 (5=80-100%)	5 (5=80-100%)	5 (5=80-100%)	5 (5=80-100%)	5 (5=80-100%)										
CCN(C)C=Nc1c(S(C)(=O)=O)ccc(C(=O)Nc2nnnn2C)c1C [Compound 1.027]	5 (5=80-100%)	5 (5=80-100%)	5 (5=80-100%)	5 (5=80-100%)	5 (5=80-100%)	5 (5=80-100%)	5 (5=80-100%)	5 (5=80-100%)	5 (5=80-100%)	5 (5=80-100%)										
CCN(C=Nc1c(S(C)(=O)=O)ccc(C(=O)Nc2nnnn2C)c1C)CC [Compound 1.031]	5 (5=80-100%)	5 (5=80-100%)	5 (5=80-100%)	5 (5=80-100%)	5 (5=80-100%)	5 (5=80-100%)	5 (5=80-100%)	5 (5=80-100%)	4 (4=60-79%)	5 (5=80-100%)										
CN(C)C=Nc1c(Cl)ccc(C(=O)Nc2nnnn2C)c1Cl [Compound 1.041]	5 (5=80-100%)	5 (5=80-100%)	5 (5=80-100%)	5 (5=80-100%)	5 (5=80-100%)	5 (5=80-100%)		5 (5=80-100%)	5 (5=80-100%)	5 (5=80-100%)										
CCN(C=Nc1c(C(F)(F)F)ccc(C(=O)Nc2nnnn2C)c1Cl)CC [Compound 1.055]	5 (5=80-100%)	5 (5=80-100%)	5 (5=80-100%)	5 (5=80-100%)	5 (5=80-100%)	5 (5=80-100%)	5 (5=80-100%)	5 (5=80-100%)	5 (5=80-100%)	5 (5=80-100%)										
CN(C)C=Nc1c(S(C)(=O)=O)ccc(C(=O)Nc2nnnn2C)c1Cl [Compound 1.057]											5 (5=80-100%)	5 (5=80-100%)	5 (5=80-100%)	5 (5=80-100%)	5 (5=80-100%)	5 (5=80-100%)	5 (5=80-100%)	5 (5=80-100%)	5 (5=80-100%)	5 (5=80-100%)
CC(=NOCc1c(S(C)(=O)=O)ccc(C(=O)Nc2nnnn2C)c1Cl)N(C)C [Compound 1.129]	5 (5=80-100%)	5 (5=80-100%)	5 (5=80-100%)	5 (5=80-100%)	5 (5=80-100%)	5 (5=80-100%)	5 (5=80-100%)	5 (5=80-100%)	5 (5=80-100%)	5 (5=80-100%)										
CN(/C=N/c1c(C(F)(F)F)ccc(C(=O)Nc2nnnn2C)c1Cl)CC(F)(F)F [Compound 1.130, 2-chloro-N-(1-methyltetrazol-5-yl)-3-[(E)-[methyl(2,2,2-trifluoroethyl)amino]methyleneamino]-4-(trifluoromethyl)benzamide]	5 (5=80-100%)	5 (5=80-100%)	5 (5=80-100%)	5 (5=80-100%)	5 (5=80-100%)	5 (5=80-100%)	5 (5=80-100%)	5 (5=80-100%)	5 (5=80-100%)	5 (5=80-100%)										
CN(C=Nc1c(C(F)(F)F)ccc(C(=O)Nc2nnnn2C)c1Cl)c1ccccc1 [Compound 1.131]	5 (5=80-100%)	5 (5=80-100%)	5 (5=80-100%)	5 (5=80-100%)	5 (5=80-100%)	5 (5=80-100%)	5 (5=80-100%)	5 (5=80-100%)	5 (5=80-100%)	5 (5=80-100%)										
